Experimental findings from publication PMC9515202, “Bis-pharmacophore of cinnamaldehyde-clubbed thiosemicarbazones as potent carbonic anhydrase-II inhibitors” (Scientific Reports, 2022) are described below.

Data set [1] concerns the target bovine carbonic anhydrase II (bCA-II) (Bos taurus, UniProt P00921). The data set is described as follows: Carbonic anhydrase II (CA-II) inhibition, spectrophotometric p-nitrophenyl acetate assay. The note with it: pH 7.4, 25 °C; for IC50: bCA-II, substrate p-NPA, triplicate; for inhibition at 500 µM: pH 7.4, bCA-II, compound at 500 µM, read-out: % Inhibtion (500 µM). Type of data set: biochemical. Here is the method: Evaluation of carbonic anhydrase inhibition was done by spectrophotometric technique as narrated by Pocker and Meany with little alteration[69],[70] as described previously. The process was carried out in HEPES-Tris buffer (20 mM) having pH 7.4 at 25 °C. Each inhibitory well contained 20 µL of CA-II enzyme solution (0.1 mg/mL HEPES-Tris buffer), 140 µL of HEPES-Tris buffer solution, 20 µL of the compound to be analyzed in HPLC grade DMSO. At 25 °C, the solution mixture was pre-incubated for 15 min. Substrate p-nitrophenyl acetate (p-NPA) (0.7 mM) was prepared in HPLC grade methanol and the reaction was initiated by the addition of 20 µL to a well in a 96-well-plate. The quantity of product formed was measured at 400 nm continually at 1 min gap for 30 min in a 96-well-plate using xMARK microplate spectrophotometer, Bio-Rad (USA). The inhibition activity of the controlled compound was considered as 100%. All the experiments were performed in triplicates of each used concentration, and the conclusions are expressed as a mean of the triplicate.
All thiosemicarbazones derivatives (3a–q) were tested against bovine carbonic anhydrase II (bCA-II).

Structures are written as SMILES. Some results are limits rather than exact numbers.

Sequence of bovine carbonic anhydrase II (bCA-II) (P00921 whole entry): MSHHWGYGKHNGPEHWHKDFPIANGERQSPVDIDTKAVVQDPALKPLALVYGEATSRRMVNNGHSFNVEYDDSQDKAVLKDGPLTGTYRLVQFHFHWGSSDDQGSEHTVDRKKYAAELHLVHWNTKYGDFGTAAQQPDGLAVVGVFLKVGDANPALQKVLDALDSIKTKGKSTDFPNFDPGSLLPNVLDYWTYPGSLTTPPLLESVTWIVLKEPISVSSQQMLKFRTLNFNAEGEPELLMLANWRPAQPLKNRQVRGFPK

For orientation: melting point means the temperature of the solid-liquid transition. Broadly, the IC50 is the concentration needed to halve the response being measured. `CN(C)c1ccc(/C=C/C=N/NC(=S)Nc2ccccc2F)cc1` [3e, (E)-2-((E)-3-(4-(Dimethylamino)phenyl)allylidene)-N-(2-fluorophenyl)hydrazine-1-carbothioamide] gave a melting point of 189 °C. Besides, in data set [1], the IC50 was found to be 19.7 ± 0.23 µM and the inhibition at 500 µM is 93.4%.
`CN(C)c1ccc(/C=C/C=N/NC(=S)Nc2ccc(F)cc2F)cc1` [3h, (E)-N-(2,4-Difluorophenyl)-2-((E)-3-(4-(dimethylamino)phenyl)allylidene)hydrazine-1-carbothioamide]: the melting point came to 202 °C. Besides, in data set [1], the 50% inhibitory concentration (IC50) was 13.4 ± 0.52 µM and the inhibition at 500 µM worked out at 77.1%.
As to `CN(C)c1ccc(/C=C/C=N/NC(=S)NCCc2ccccc2)cc1` [3c], the melting point was 180 °C.
Take `CN(C)c1ccc(/C=C/C=N/NC(=S)Nc2ccc(Cl)cc2)cc1` [3m, (E)-N-(4-Chlorophenyl)-2-((E)-3-(4-(dimethylamino)phenyl)allylidene)hydrazine-1-carbothioamide]: the melting point is 238 °C. In addition, in data set [1], 14.7 ± 1.42 µM corresponded to half-maximal inhibition (IC50) and the inhibition at 500 µM came to 79.9%.
On the same counts, the results for `Cc1cccc(C)c1NC(=S)N/N=C/C=C/c1ccc(N(C)C)cc1` [3b, (E)-2-((E)-3-(4-(Dimethylamino)phenyl)allylidene)-N-(2,6-dimethylphenyl)hydrazine-1-carbothioamide] are 239 °C, 40.4 ± 0.89 µM and 78.1%.
For `COc1cccc(NC(=S)N/N=C/C=C/c2ccc(N(C)C)cc2)c1` [3f, (E)-2-((E)-3-(4-(Dimethylamino)phenyl)allylidene)-N-(3-methoxyphenyl)hydrazine-1-carbothioamide] the same measures were 198 °C, 17.9 ± 1.23 µM and 89.7%.
On the same counts, the results for `CN(C)c1ccc(/C=C/C=N/NC(=S)Nc2cccc(Cl)c2Cl)cc1` [3d, (E)-N-(2,3-Dichlorophenyl)-2-((E)-3-(4-(dimethylamino)phenyl)allylidene)hydrazine-1-carbothioamide] are 192 °C, 36.6 ± 0.15 µM and 82.2%.
Compound `CN(C)c1ccc(/C=C/C=N/NC(=S)NC2CCCCC2)cc1` [3q, (E)-N-Cyclohexyl-2-((E)-3-(4-(dimethylamino)phenyl)allylidene)hydrazine-1-carbothioamide] yielded a melting point of 252 °C.
`CN(C)c1ccc(/C=C/C=N/NC(=S)Nc2ccc(Br)cc2)cc1` [3g, (E)-N-(4-Bromophenyl)-2-((E)-3-(4-(dimethylamino)phenyl)allylidene)hydrazine-1-carbothioamide] yielded a melting point of 240 °C. For the same compound, in data set [1], the IC50 came to 12.1 ± 1.01 µM and the inhibition at 500 µM is 93%.
For `CN(C)c1ccc(/C=C/C=N/NC(=S)Nc2cccc(C#N)c2)cc1` [3o, (E)-N-(3-Cyanophenyl)-2-((E)-3-(4-(dimethylamino)phenyl)allylidene)hydrazine-1-carbothioamide] the same measures were 215 °C, 21.8 ± 0.85 µM and 81.8%.
`CN(C)c1ccc(/C=C/C=N/NC(=S)NCc2ccc(F)cc2)cc1` [3n] yielded a melting point of 192 °C. Moreover, in data set [1], half-maximal inhibition (IC50) required 10.3 ± 0.62 µM and the inhibition at 500 µM worked out at 63.2%.
`CN(C)c1ccc(/C=C/C=N/NC(=S)NCc2ccc(Cl)cc2)cc1` [3k] displayed a melting point of 196 °C.
On the same count and under the same terms, then `CN(C)c1ccc(/C=C/C=N/NC(=S)Nc2ccccc2)cc1` [3p, (E)-2-((E)-3-(4-(Dimethylamino)phenyl)allylidene)-N-phenylhydrazine-1-carbothioamide], with 218 °C.
`CN(C)c1ccc(/C=C/C=N/NC(=S)Nc2cccc(F)c2)cc1` [3j, (E)-2-((E)-3-(4-(Dimethylamino)phenyl)allylidene)-N-(3-fluorophenyl)hydrazine-1-carbothioamide] gave a melting point of 218 °C. Also, the inhibition at 500 µM in data set [1] was less than 50%.
For `Cc1ccc(NC(=S)N/N=C/C=C/c2ccc(N(C)C)cc2)cc1` [3a, (E)-2-((E)-3-(4-(Dimethylamino)phenyl)allylidene)-N-(p-tolyl)hydrazine-1-carbothioamide], the melting point worked out at 232 °C. Also, in data set [1], the IC50 stood at 46.6 ± 0.62 µM and the inhibition at 500 µM worked out at 82%.
`Cc1ccc(NC(=S)N/N=C/C=C/c2ccc(N(C)C)cc2)c(C)c1` [3l, (E)-2-((E)-3-(4-(Dimethylamino)phenyl)allylidene)-N-(2,4-dimethylphenyl)hydrazine-1-carbothioamide] showed a melting point of 232 °C. In addition, in data set [1], it took 18.3 ± 1.32 µM to reach half-maximal inhibition (IC50) and the inhibition at 500 µM worked out at 78.2%.
`CC(C)c1ccc(NC(=S)N/N=C/C=C/c2ccc(N(C)C)cc2)cc1` [3i, (E)-2-((E)-3-(4-(Dimethylamino)phenyl)allylidene)-N-(4-isopropylphenyl)hydrazine-1-carbothioamide] gave a melting point of 220 °C. In data set [1], the half-inhibitory concentration (IC50) is 33.6 ± 0.42 µM and the inhibition at 500 µM is 84.9%.
